Source: patent publication EP2958918B1, “DIHYDROPTERIDINONES II” (Boehringer Ingelheim International GmbH, priority 2013, dated 2014)

Experiments:
[1] = tested on: Aβ42; assay: Aβ42 cellular assay: inhibition of Aβ42 production in H4 neuroglioma cells stably expressing human APP695, electrochemiluminescence (Meso Scale Discovery) on supernatant; format: cell-based; settings: 22 hours incubation, tested range 30 µM to 0.1 nM
Protocol: (§1) Cells were plated out to near confluency. The compounds to be tested were received as 10 mM stocks in 100% DMSO. A dilution series was initially generated in 100% DMSO and then diluted 200-fold in cell culture media such that the tested concentration range was 30 µM to 0.1 nM and the final DMSO concentration was 0.5%. The diluted compounds were incubated with the cells for 22 hours in an incubator at 37°C and 5% CO2. Aβ42 as well as Aβ total levels were then measured post-incubation from the supernatant of the cells. Aβ42 levels were determined using a specific electrochemiluminescence assay provided by Meso Scale Discovery (Catalog # L21CA-1) according to the manufacturer's protocol. Aβ total levels were likewise determined using a specific electrochemiluminescence assay provided by Meso Scale Discovery (Catalog # L21ZA-1) according to the manufacturer's protocol.
(§2) In order to absolutely define the described compounds as modulators of y-Secretase as opposed to simply inhibitors of γ-Secretase, measurements of not only Aβ42 but also Aβ total are performed.

[2] = tested on: Aβ total; assay: Aβ total cellular assay: inhibition of Aβ total production in H4 neuroglioma cells stably expressing human APP695, electrochemiluminescence (Meso Scale Discovery) on supernatant; used for the ratio Aβ total IC50 / Aβ42 IC50; format: cell-based; settings: higher ratio = more specific inhibition of Aβ42
Protocol: as §1, §2

| SMILES | IC50 [1] [nM] | Ratio Aß(total)/Aß42 [2] |
| --- | --- | --- |
| COc1cc(Nc2ncc3c(n2)NC2(CCOC2)C(=O)N3C)ccc1-n1cnc(C)c1 (centres unmarked) [Example 20] | 790 | > 90 |
| CCc1nc(Nc2cnc(-n3cnc(C)c3)c(OC)c2)nc2c1N(C)C(=O)C1(CC1)N2C [Example 37i] | 150 | 54 |
| COc1cc(Nc2ncc3c(n2)N(C)C2(CCOC2)C(=O)N3C2COC2)ccc1-n1cnc(C)c1 (centres unmarked) [Example 21] | 220 | 114 |
| COc1cc(Nc2nc3c(c(C(F)(F)F)n2)N(C)C(=O)C2(CCOCC2)N3C)ccc1-n1cnc(C)c1 [Example 37d] | 815 | >36 |
| COc1cc(Nc2ncc3c(n2)N(C)C2(CCOCC2)C(=O)N3c2cc(F)cc(F)c2)ccc1-n1cnc(C)c1 [Example 37c] | 116 | 75 |
| COc1cc(Nc2nc(C)c3c(n2)N(C)C2(CCOCC2)C(=O)N3C)ccc1-n1cnc(C)c1 [Example 4] | 290 | 101 |

These reach a lower IC50 [1]. Values come first.

| IC50 [1] [nM] | SMILES | Ratio Aß(total)/Aß42 [2] |
| --- | --- | --- |
| 86 | COc1cc(Nc2ncc3c(n2)N(C)C2(CCOC2)C(=O)N3CC(F)(F)F)ccc1-n1cnc(C)c1 (centres unmarked) [Example 37e] | 82 |
| 40 | COc1cc(Nc2ncc3c(n2)N(C)C2(CCCC2)C(=O)N3C)ccc1-n1cnc(C)c1 [Example 53] | 132 |
| 76 | CCc1nc(Nc2ccc(-n3cnc(C)c3)c(C#N)c2)nc2c1N(C)C(=O)C1(CCOC1)N2C (centres unmarked) [Example 35] | 180 |
| 76 | COc1cc(Nc2nc(CC(F)(F)F)c3c(n2)N(C)C2(CC2)C(=O)N3C)ccc1-n1cnc(C)c1 [Example 55] | 103 |
